Laboratory results reported in the Kinase Knowledgebase extract (Sharma et al. 2016).

molecular target: CDK2 (UniProt P24941); test: Enzyme Assay

| SMILES | IC50 [µM] |
| --- | --- |
| Oc1cccc(Nc2cncc(Cl)n2)c1 | 6 |
| Clc1cncc(NC[C@H]2CCCN2)n1 | 5 |
| O[C@@H]1CCCC[C@H]1CN(c1cncc(Cl)n1)C1CCCCC1 | 12 |
| Oc1ccc(Nc2cncc(Cl)n2)cc1 | 24 |
| Clc1cncc(N(Cc2ccccc2)C2CCCCC2)n1 | 64 |
| CC(C)(C)c1cc(N)n(-c2cncc(Cl)n2)n1 | 147 |
| Clc1cncc(Nc2ccccc2)n1 | 9 |
| O=c1[nH]c2ccccc2n1-c1cncc(Cl)n1 | 10 |
| Clc1cncc(NCc2ccc(Cl)s2)n1 | 32 |
| Clc1cncc(-n2cccn2)n1 | 82 |
| Clc1cncc(N2CCc3ccccc3C2)n1 | 98 |
| Clc1cncc(NCc2cc(Oc3cncc(Cl)n3)no2)n1 | 40 |
| NS(=O)(=O)CCNc1cncc(Cl)n1 | 60 |
| O=C(O)c1ccc(Nc2cncc(Cl)n2)nc1 | 68 |
| CCOC(=O)c1ccc(CNc2cncc(Cl)n2)o1 | 36 |
| CSc1cncc(Nc2ccccc2)n1 | 3 |
| Cc1cc2cc(CNc3cncc(Cl)n3)ccc2[nH]1 | 14 |
| Cc1cc(Nc2cncc(Cl)n2)[nH]n1 | 49 |
| c1ccc(Nc2cncc(-n3ccnc3)n2)cc1 | 5.5 |

Further compounds by falling IC50, results first:

| IC50 [µM] | SMILES |
| --- | --- |
| 105 | CC(C)CNc1cncc(Cl)n1 |
| 105 | c1cn(-c2cncc(-n3ccnc3)n2)cn1 |
| 102 | Clc1cncc(N2CCN(c3ccccc3)CC2)n1 |
| 73 | Clc1cncc(NCCc2c[nH]cn2)n1 |
| 54 | OCCN(c1cncc(Cl)n1)C1CCCCC1 |
| 52 | Clc1cncc(NC2CCCC2)n1 |
| 43 | Clc1cncc(NCCNc2cncc(Cl)n2)n1 |
| 35 | Clc1cncc(-n2cnc3ccccc32)n1 |
| 27 | Clc1cncc(Nc2cccnc2)n1 |
| 27 | Clc1cncc(NC2CCCCC2)n1 |
| 23 | Clc1cncc(NC(c2ccccc2)c2ccccc2)n1 |
| 17 | FC(F)(F)COc1cncc(Nc2ccccc2)n1 |
| 17 | Clc1cncc(Nc2ccccn2)n1 |
| 16 | Fc1ccc(Nc2cncc(Cl)n2)cc1 |
| 15 | CC(=O)Nc1ccc(Nc2cncc(Cl)n2)cc1 |
| 12 | CC(C)c1nccn1-c1cncc(Nc2ccccc2)n1 |
| 9 | NC(=O)c1sccc1Nc1cncc(Cl)n1 |
| 8 | Clc1ccc(Nc2cncc(Cl)n2)nc1 |
| 7 | NS(=O)(=O)c1cccc(Nc2cncc(Cl)n2)c1 |
| 4 | NCCCN(c1cncc(Cl)n1)C1CCCCC1 |
